Where no end group is shown, it is not given here.
Experiments:
GPR162 [1] = assay: Co-immunoprecipitation of CART and GPR162 in INS-1 832/13 cells; type: binding, rat; conditions: 10^-7M CARTp55-102, 30 min at 4°C, BS3 cross-link, precipitation with CART antibody, GPR162 blot; n = 3 biological replicates
Experimental: INS-1 832/13 cell lysates were incubated with 10^−7M CARTp55-102 for 30 min at 4°C and then cross-linked with 1 mM BS[3] for 30 min at room temperature, then precipitated using biotin-labelled CART antibody (code H003-62, dilution 1:5000, Phoenix Pharmaceuticals) bound to streptavidin-coated magnetic Dynabeads (Thermo Fisher). Cells lysates were then washed five times in ice-cold PBS and membrane proteins were extracted using MemPER Plus (Thermo Scientific). Protein concentration was then measured using BCA assay (BioRad, Hercules, CA) and 20 μg loaded on a 10% Mini-PROTEAN TGX Stain-Free gel (BioRad). After electrophoresis (200 V for 40 min) and transfer, the PVDF membrane was blocked in TBS-T with 5% fat free dry milk. Primary antibody (anti-rabbit GPR162, code TA331838, 1:100 dilution, Origene, Rockville, MD) was dissolved in 1XTBS-T with 5% BSA (overnight at 4°C). Secondary antibody (anti-rabbit IgG; 1:2500 dilution) was diluted in 1XTBS-T with 5% dry milk. All wash steps were for 10 min in 1XTBS-T.

GPR162 [2] = assay: Proximity ligation assay (PLA) CART-GPR162 in INS-1 832/13 cells; type: binding, rat
Experimental: (§1) INS-1 832/13 cells were seeded in 8-well tissue culture chambers (Sarstedt, Nümbrecht, Germany). 10^−7M rat CARTp55-102 (Phoenix Pharmaceuticals, Burlingame, CA) was added to fresh media and cells were incubated for 5 min in a humidified atmosphere (37°C, 5% CO2). Cells were rinsed quickly in ice-cold 1XPBS and then washed twice with ice-cold PBS. Cells were then fixed for 20 min in 4% paraformaldehyde, washed 2 × 10 min in 1XPBS and permeabilized for 15 min in PBS +0.25% Triton X-100. Proximity ligation assay (PLA) (DuoLink In situ Red Starter Kit Goat/Rabbit, Sigma Aldrich) was performed according to the instructions provided by the manufacturers. The following antibody combinations were used for the PLA: goat anti-GPR162 (sc-138323, dilution 1:500, Santa Cruz) with rabbit anti-CART (code 2059A, dilution 1:5000, kindly provided by Dr. Jes T. Clausen, Novo Nordisk, Måløv, Denmark), and goat anti-CART (code sc-18068, dilution 1:400, Santa Cruz) with rabbit anti-GPR162 (code PA5-33655, dilution 1:500, Thermo Scientific). Anti-rabbit GPR160 (code PA5-33650) was combined with anti-goat CART (code sc-18068 from Santa Cruz). Anti-rabbit GNA13 (PA5-100644) was combined with anti-goat GPR162 (sc-138323). Negative controls were omission of both antibodies and the combination of the CART antibody with an antibody toward a receptor with a known ligand. […]

GPR160 = assay: Proximity ligation assay (PLA) CART-GPR160 in INS-1 832/13 cells; type: binding, rat; conditions: 10^-7M CARTp55-102, 15 minutes (Figure S3B), n = 8
Experimental: as §1, with “10^−7M rat CARTp55-102 (Phoenix Pharmaceuticals, Burlingame, CA) was added to fresh media and cells were incubated for 5 min in a humidified atmosphere (37°C, 5% CO2).” left out

INS-1 832/13 cells = assay: Glucose-stimulated insulin secretion (GSIS) in INS-1 832/13; type: cell-based, rat; conditions: 10^-7M CARTp55-102 24 h before GSIS, 16.7 mM glucose, 10 μM IBMX
Experimental: GSIS was measured 72 h after Cartpt KD. INS-1 832/13 cells were washed twice and incubated for 2 h in 2.8 mM glucose HEPES-buffered saline solution (HBSS): 114 mM NaCl, 4.7 mM KCl, 1.2 mM KH2PO4, 1.16 mM MgSO4, 20 mM HEPES, 2.5 mM CaCl2, 25.5 mM NaHCO3, 0.2% BSA, pH 7.2, followed by 1-h stimulation in the same buffer containing 2.8 mM, 16.7 mM glucose, 16.7 mM glucose and 10 μM IBMX. In a separate experiment, control and Gpr162 KD cells were incubated with 10^−7M CARTp55-102 for 24 h before GSIS. Insulin concentrations in supernatant were determined using ELISA (Mercodia, Uppsala, Sweden) and were normalized to total protein content of each well (determined by Bio-Rad protein assay, BioRad).
Insulin from INS-1 832/13 cells and mouse islets were analyzed using ELISA (Mercodia).

beta cells in islets = conditions: between beta cells within same islet; cited from earlier work
Excerpt: Our observation that CART affects cytoskeletal rearrangement is novel. Without doubt, the actin network is of great importance for properly functioning insulin secretion.[34]^,[35]^,[36]^,[37] In the present study, a large number of genes involved in cytoskeletal rearrangement were affected by both Cartpt KD and Gpr162 KD. […] Furthermore, Cartpt KD also affects genes crucial for regulation of exocytosis,[14] a process indeed dependent on ...

## CARTp55-102: Rat, mouse CARTp55-102 (Phoenix Pharmaceuticals, Cat#003-62); human form Cat#003-60; cocaine- and amphetamine-regulated transcript peptide (IPIYEKKYGQVPMCDAGEQCAVRKGARIGKLCDCPRGTSCNSFLLKCL; ends and bridges not checked; cysteine pairing not given here)
GPR162 [1]
  Co-immunoprecipitated GPR162: stronger binding for GPR162 in the CARTp-treated cells than the binding observed in control cells
GPR162 [2]; 10^-7M rat CARTp55-102, 5 min, 37°C, n = 8
  CART-GPR162 interaction (PLA): confirmed an interaction between GPR162 and CART
GPR162 [2]; Gpr162 siRNA vs control cells, 10^-7M CARTp55-102, n = 8, p < 0.005
  Reduction of CART-GPR162 interaction (PLA) in Gpr162 siRNA cells: 90%
GPR160
  CART-GPR160 interaction (PLA): no
GPR160; listed as CART
  CART-GPR160 interaction (PLA): failed to detect
INS-1 832/13 cells; n = 6
  Insulinotropic effect of CARTp55-102 on glucose and IBMX-stimulated secretion in Gpr162 KD cells: abolished
INS-1 832/13 cells; n = 6, listed as CART
  Insulinotropic effect of CARTp55-102 on glucose and IBMX-stimulated secretion in Gpr162 KD cells: near-complete abolishment
Beta cells in islets
  Synchronization of Ca2+ oscillations: increased synchronization of Ca^2+ oscillations

From PMC10709007, “GPR162 is a beta cell CART receptor” (iScience, 2023)
